Data as given in patent US4329495A, “Enkephalinase enzyme inhibiting compounds” (Pfizer Inc., priority 1981, dated 1982).

Columns and labels:
[1] = tested on: abdominal stretching after phenylbenzoquinone (PBQ); assay: analgesic activity: blockade of abdominal stretching after phenylbenzoquinone (PBQ); type: in vivo, mice, Carworth CF-1 strain; parameters: key: (a): No significant activity noted at this dose level; conditions: s.c., 20 min. pre-treatment
Experimental: To test for the analgesic activity of the compounds of the present invention, a chemical nociceptive stimulus is employed, viz., blockade of abdominal stretching after phenylbenzoquinone (PBQ). […] The animals to be used are fasted for 15-16 hr. before the start of the experiment. Fifteen mice (groups of 5) weighing 11-15 g. are employed per dose level. Compounds are given by the oral or subcutaneous route. Drug pre-treatment times are 1 hr. (p.o.) and 20 min. (s.c.). Pairs of mice are injected with 2 mg./kg. of PBQ i.p. and placed in a lucite box (11×7×9.5 in.) maintained at 40° by a thermostatically controlled water bath. Starting 5 min. later the animals are observed for 5 min. and the number of abdominal stretching responses per animal is recorded. A stretch is considered to represent an intermittent contraction of the abdomen, hind limb extension, pelvic rotation, or opisthotonos (the abdomen of the mouse touches the floor of the cage and is dragged the length of the cage). The degree of analgesic protection is calculated on the basis of the suppression of writhing relative to control animals run on the same day (% MPE). This test reflects the ultimate clinical utility of the compounds as analgesic agents.

enkephalinase [2] = target: T1, enkephalinase (Rattus norvegicus, UniProt P07861); assay: inhibition of enkephalinase enzyme in vitro (Tyr-gly-gly formation from 3H-leucine-enkephalin); type: biochemical, Sprague-Dawley CD male rats (whole brain minus cerebellum); conditions: pH 7.7, 37° C., 1 hour
T1 construct: whole brain (minus cerebellum) is removed from Sprague-Dawley CD male rats; from tissue; host or cells: rat whole brain minus cerebellum (Sprague-Dawley CD male rats, Charles River); washed membranes solubilized with 1% Triton X-100
T1 sequence (P07861 1-750): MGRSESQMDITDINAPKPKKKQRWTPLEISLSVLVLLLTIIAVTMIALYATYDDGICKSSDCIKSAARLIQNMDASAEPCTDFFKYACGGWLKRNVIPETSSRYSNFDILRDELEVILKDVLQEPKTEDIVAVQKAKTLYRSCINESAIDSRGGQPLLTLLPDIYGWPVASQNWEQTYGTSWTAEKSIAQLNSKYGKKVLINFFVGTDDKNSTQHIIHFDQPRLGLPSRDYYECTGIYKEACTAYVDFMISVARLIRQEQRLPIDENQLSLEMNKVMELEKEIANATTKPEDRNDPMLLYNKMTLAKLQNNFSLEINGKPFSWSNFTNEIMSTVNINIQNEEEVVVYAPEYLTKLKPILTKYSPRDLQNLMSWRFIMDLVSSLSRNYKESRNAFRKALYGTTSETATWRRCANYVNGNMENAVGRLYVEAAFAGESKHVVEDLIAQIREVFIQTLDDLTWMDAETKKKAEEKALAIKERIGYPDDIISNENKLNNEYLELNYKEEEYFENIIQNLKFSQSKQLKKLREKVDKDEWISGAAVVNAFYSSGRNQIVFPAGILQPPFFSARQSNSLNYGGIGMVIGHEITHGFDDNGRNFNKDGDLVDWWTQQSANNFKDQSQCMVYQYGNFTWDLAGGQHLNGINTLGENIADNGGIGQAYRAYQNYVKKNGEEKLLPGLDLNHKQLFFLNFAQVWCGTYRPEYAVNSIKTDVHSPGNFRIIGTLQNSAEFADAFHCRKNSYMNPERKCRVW
Experimental: The compounds of the present invention are studied in vitro for inhibition of enkephalinase enzyme in the following manner. To prepare the enzyme, whole brain (minus cerebellum) is removed from Sprague-Dawley CD male rats (Charles River Breeding Laboratories, Inc., Wilmington, MA; 200-250 g.) following decapitation. The tissue is homogenized (Polytron, Brinkmann Instruments, Inc., Westbury, NY) in 30 volumes (w/v) of ice-cold 50 mM Tris-HCl tris(hydroxymethyl)methylamine hydrochloride, Fisher Scientific Co., Fair Lawn, NJ) pH 7.7 buffer. The homogenate in centrifuged at 50,000×g. for 15 minutes. The pellet is resuspended in 50 mM Tris-HCl pH 7.7 buffer and centrifuged at 50,000×g. for 15 minutes. The resultant pellet is resuspended and centrifuged 3 additional times as described above. The membrane pellet is dispersed in 15 volumes of 50 mM Tris-HCl pH 7.7 buffer containing 1% Triton X-100 (Rohm and Haas, Philadelphia, PA) and incubated at 37° C. for 45 minutes. After centrifugation at 100,000×g. for 60 minutes, the solubilized enzymes are frozen in 2 ml. aliquots (this preparation can be stored frozen for 3 months).
One set of control tubes contains boiled enzyme (heated at 100° C. for 10 minutes) for blank. The reaction is stopped by boiling tubes for 10 minutes, followed by centrifugation for 1 minute in the Beckman Microfuge centrifuge. A ten microl aliquot of each supernatant is spotted on a thin layer chromatography (TLC) plate (Silica Gel 60, 20×20 cm, E. Merck, Darmstadt, Germany) using 1-8 samples per plate. Ten microl of a standard mixture consisting of 0.4 mg./ml. tyrosine (tyr, Mann Research Laboratories, Inc., New York, NY), 1 mg./ml. L-tyrosylglycine (tyr-gly Sigma), 1 mg./ml. L-tyrosylglycylglycine (tyr-gly-gly, Sigma) and 1 mg./ml. leucine-enkephalin (leu-E, Calbiochem-Behring Corp., La Jolla, CA) are spotted on top of each incubation mixture spot, as well as separately on each plate, to aid in zone indentification.
Plates are dried and placed in covered glass tanks equilibrated with 100 ml. of isopropanol:ethyl acetate:5% acetic acid (2:2:1). After development of the TLC plates, the separated products were visualized by spraying with a ninhydrin:acetone (0.5%, w/v) solution and heating for 10 minutes at 100° C. in a vacuum oven. Rf values of standard markers are: tyr, 0.33; tyr-gly, 0.20: tyr-gly-gly, 0.13; leu-E, 0.47. The radioactive spots are identified by the added markers and scraped into scintillation vials to which 1 ml. ethanol is added, followed by 10 ml. Aquasol-2 (New England Nuclear). Vials are kept overnight and counted for radioactivity in a liquid scintillation counter. Tyr-gly-gly formation is based on the difference between total counts per minute for this TLC zone minus the corresponding value obtained by using boiled enzyme (blank). […]

[3] = tested on: supramaximal electroconvulsive shock (ECS); assay: anticonvulsant effect vs. supramaximal electroconvulsive shock (ECS) in mice; type: in vivo, Charles River males, Swiss CD strain; conditions: for ED50: Mus musculus, sc, mice, 1 hr. before ECS
Experimental: The anticonvulsant activity of the compounds of the present invention is determined by testing in mice, viz., Charles River males, Swiss CD strain (17-21 g.), fasted for 18 hr. before testing. Groups of mice are treated with a range of levels of the test compounds, and 1 hr. later with supramaximal electroconvulsive shock (ECS), administered for 0.2 sec. at 50 mA, 60 Hz, through transcorneal electrodes. After administration of the electrical stimulus, each mouse is observed for 10 sec. for the presence or absence of hind limb tonic extension. […] Blockade of supramaximal ECS in mice is a common laboratory test for clinical utility as an anticonvulsant, and certain known anticonvulsant drugs show activity in this test.

enkephalinase [4] = conditions: Roques et al., Nature 288, 286-288 (1980); cited from earlier work
hot plate jump test = conditions: mice; Roques et al.; cited from earlier work
tail withdrawal test = conditions: mice; Roques et al.; cited from earlier work

SMILES | Percent Blockade of Abdominal Stretching (% MPE) After Phenylbenzoquinone ([1]; 320 mg./kg.) | IC50 (enkephalinase [2]) [nM] | ED50 [3] [mg/kg] | other results
CSCC[C@@H](CO)NC(=O)[C@@H](CS)Cc1ccc(Cl)cc1 [I (X=4-Cl, R=H, n=2, m=0, R^1=CH3)] | 86 % MPE | – | – | –
COc1ccc(C[C@H](CS)C(=O)N[C@H](CO)CCSC)cc1 [I (X=4-OCH3, R=H, n=2, m=0, R^1=CH3)] | 62 % MPE | – | – | –
CSCC[C@@H](CO)NC(=O)[C@@H](CS)Cc1ccccc1 [I (X=H, R=H, n=2, m=0, R^1=CH3)] | 100 % MPE | 480 | 178 | Percent Blockade of Abdominal Stretching (% MPE) After Phenylbenzoquinone ([1]; 170 mg./kg.): 23 % MPE; Percent Blockade of Abdominal Stretching (% MPE) After Phenylbenzoquinone ([1]; 233 mg./kg.): 69 % MPE
CSCC[C@@H](CO)NC(=O)[C@H](CS)Cc1ccc(Cl)cc1 [II (X=4-Cl, R=H, n=2, m=0, R^1=CH3)] | 75 % MPE | – | – | –
COc1ccc(C[C@@H](CS)C(=O)N[C@H](CO)CCSC)cc1 [II (X=4-OCH3, R=H, n=2, m=0, R^1=CH3)] | 46 % MPE | – | – | –
CSCC[C@@H](CO)NC(=O)[C@H](CS)Cc1ccccc1 [II (X=H, R=H, n=2, m=0, R^1=CH3)] | (a) | 9600 | – | –
CSCC[C@H](NC(=O)[C@H](CS)Cc1ccccc1)C(=O)O [III] | – | 9.1 | 74.1 | Percent Blockade of Abdominal Stretching (% MPE) After Phenylbenzoquinone ([1]; 160 mg./kg.): 57 % MPE
CSCC[C@H](NC(=O)[C@@H](CS)Cc1ccccc1)C(=O)O [IV] | – | 70 | 141 | Percent Blockade of Abdominal Stretching (% MPE) After Phenylbenzoquinone ([1]; 160 mg./kg.): 48 % MPE
O=C(O)CNC(=O)C(CS)Cc1ccccc1 (stereo not shown) [Thiorphan, N-(2-benzyl-3-mercaptopropionyl)glycine] | – | – | > 320 | anticonvulsant activity (in words) ([3]; even at a much higher dose): inactive; enkephalinase inhibition (in words) (enkephalinase [4]): specific enkephalinase inhibitor; analgesic (antinociceptive) activity, hot plate jump test (in words) (hot plate jump test): elicit analgesic (antinociceptive) activity; analgesic (antinociceptive) activity, tail withdrawal test (in words) (tail withdrawal test): not in the so-called tail withdrawal test
